Data: patent US11535593B2, “3-phosphoglycerate dehydrogenase inhibitors and uses thereof” (Raze Therapeutics, Inc., priority 2016, dated 2022)

Each compound was assayed against T1, Full length (FL) 3-Phosphoglycerate Dehydrogenase (PHGDH) (Homo sapiens, UniProt O43175) (assay: Full length (FL) PHGDH Diaphorase coupled assay (500 uM NAD)). Details: 5 nM PHGDH, 30° C., 60 minutes.
T1 construct: Full length (FL) 3-Phosphoglycerate Dehydrogenase (PHGDH) Diaphorase coupled assay (500 uM NAD)
T1 sequence (O43175 1-533): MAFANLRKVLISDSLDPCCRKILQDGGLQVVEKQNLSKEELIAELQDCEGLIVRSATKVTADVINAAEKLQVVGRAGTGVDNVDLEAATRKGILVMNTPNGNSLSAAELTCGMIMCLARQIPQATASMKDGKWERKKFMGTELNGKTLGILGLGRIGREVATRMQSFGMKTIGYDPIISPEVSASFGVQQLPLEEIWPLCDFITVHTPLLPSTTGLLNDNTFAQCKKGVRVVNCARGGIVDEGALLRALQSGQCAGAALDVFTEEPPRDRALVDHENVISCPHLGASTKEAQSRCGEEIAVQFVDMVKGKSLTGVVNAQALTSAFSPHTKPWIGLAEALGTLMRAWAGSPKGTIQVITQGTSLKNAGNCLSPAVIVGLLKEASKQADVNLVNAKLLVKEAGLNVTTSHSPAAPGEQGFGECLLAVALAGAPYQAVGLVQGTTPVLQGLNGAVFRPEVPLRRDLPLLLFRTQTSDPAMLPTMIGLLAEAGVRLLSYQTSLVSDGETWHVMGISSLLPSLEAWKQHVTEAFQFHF
Assay type: biochemical
Experimental: Full length (FL) 3-Phosphoglycerate Dehydrogenase (PHGDH) Diaphorase coupled assay (500 uM NAD)
PHGDH activity was determined by detecting the NADH produced during the reaction. Diaphorase was used to catalyze the oxidation of NADH with the concomitant reduction of resazurin to the fluorescent product resorufin. Resorufin fluorescence quantitatively reflected the production of NADH by the PHGDH reaction. To drive the forward reaction, two enzymes in the serine synthesis pathway subsequent to PHGDH, Phosphoserine aminotransferase (PSAT1) and phosphoserine phosphatase (PSPH) were also added to the reaction.

| SMILES | IC50 |
| --- | --- |
| Cn1c(C(=O)N[C@H](CO)c2ccc(C(=O)O)cc2)cc2c(Cl)c(Cl)ccc21 [Compound I-43, 4-[(1S)-1-[(4,5-dichloro-1-methyl-1H-indol-2-yl)formamido]-2-hydroxyethyl]benzoic acid] | 10 to 1000 nM |
| CC(NC(=O)c1cc2c(Cl)c(Cl)ccc2n1C)c1ccc(C(=O)O)cc1 (centres unmarked) [Compound I-44] | 10 to 1000 nM |

These compounds were tested against T1, Full length (FL) 3-Phosphoglycerate Dehydrogenase (PHGDH) (assay: Full length (FL) PHGDH Diaphorase coupled assay (20 uM NAD)). Details: 10 nM PHGDH, 30° C., 60 minutes, read-out: FL Diaphorase 20 μM NAD (PHGDH activity inhibition, IC50).
Assay type: biochemical
Experimental: Example 57: Full Length (FL) 3-Phosphoglycerate Dehydrogenase (PHGDH) Diaphorase Coupled Assay (20 uM NAD)
Serial dilution of compounds were incubated in a volume of 20 μl in 384 well plates with the assay mixture containing 10 nM PHGDH, 500 nM PSAT1, 500 nM PSPH, 20 μM NAD^+, 80 uM 3-phosphoglycerate, 1 mM glutamate, 57 uM Resazurin and 0.2 mg/ml Diaphorase in assay buffer containing 50 mM Trisethanoloamine (TEA) pH8.0, 10 mM MgCl2, 0.01% Tween-20 and 0.05% Bovine Serum Albumin (BSA). The plate was then incubated at 30° C. for 60 minutes and resorufin fluorescence was measured at emission wavelength 598 nm following excitation at 525 nm. The positive control consisted of the complete reaction mixture with 4% DMSO and was set to 0% inhibition. […] Percent inhibition with the compounds was then calculated by normalizing the fluorescence observed at a given compound concentration to the positive and negative controls.

| SMILES | IC50 |
| --- | --- |
| CC(=O)NS(=O)(=O)N(C)CCC(NC(=O)c1cc2c(Cl)c(Cl)ccc2n1C)c1ccc(C(=O)O)cc1 (racemic) [Compound I-45, (±)-4-[3-[Acetylsulfamoyl(methyl)amino]-1-[(4,5-dichloro-1-methyl-indole-2-carbonyl)-amino]propyl]benzoic Acid] | 10 to 1000 nM |
| Cn1c(C(=O)NC(CN)c2ccc(C(=O)O)cc2)cc2c(Cl)c(Cl)ccc21 (racemic) [Compound I-46, (±)-4-(2-Amino-1-(4,5-dichloro-1-methyl-1H-indole-2-carboxamido)ethyl) benzoic Acid] | 10 to 1000 nM |
| CC(=O)NS(=O)(=O)NCCC(NC(=O)c1cc2c(Cl)c(Cl)ccc2n1C)c1cccc(CO)c1 (racemic) [Compound I-48, (±)-N-[3-(acetylsulfamoylamino)-1-[3-(hydroxymethyl)phenyl]propyl]-4,5-dichloro-1-methyl-indole-2-carboxamide] | 1000 to 5000 nM |
| CC(=O)NS(=O)(=O)NCCC(NC(=O)c1cc2c(Cl)c(Cl)ccc2n1C)c1cccc(C(=O)O)c1 (racemic) [Compound I-49, (±)-3-[3-(Acetylsulfamoylamino)-1-[(4,5-dichloro-1-methyl-indole-2-carbonyl)amino]propyl]benzoic Acid] | 10 to 1000 nM |
| CC(=O)NS(=O)(=O)NCCC(NC(=O)c1cc2c(Cl)c(Cl)ccc2n1C)c1ccccc1 (racemic) [Compound I-50, (±)-N-[3-(acetylsulfamoylamino)-1-phenyl-propyl]-4,5-dichloro-1-methyl-indole-2-carboxamide] | 1000 to 5000 nM |
| CC(=O)NS(=O)(=O)NCCC(NC(=O)c1cc2c(Cl)c(Cl)ccc2n1C)c1ccc(C(=O)O)cc1 (centres unmarked) [Compound I-47, 4-[3-(Acetylsulfamoylamino)-1-[(4,5-dichloro-1-methyl-indole-2-carbonyl)amino]propyl]benzoic Acid] | 10 to 1000 nM |
| CC(=O)NS(=O)(=O)N(C)CCCNC(=O)c1cc2c(Cl)c(Cl)ccc2n1C [Compound I-51, N-[3-[acetylsulfamoyl(methyl)amino]propyl]-4,5-dichloro-1-methyl-indole-2-carboxamide] | 5000 to 10000 nM |
| CC(=O)NS(=O)(=O)NCCCNC(=O)c1cc2c(Cl)c(Cl)ccc2n1C [Compound I-52, N-[3-(acetylsulfamoylamino)propyl]-4,5-dichloro-1-methyl-indole-2-carboxamide] | 1000 to 5000 nM |
| Cn1c(C(=O)NC(C)(C)CC(N)=O)cc2c(Cl)c(Cl)ccc21 [Compound I-53, N-(3-amino-1,1-dimethyl-3-oxo-propyl)-4,5-dichloro-1-methyl-indole-2-carboxamide] | > 10000 nM |
